Measured values taken from US20250283050A1, “METHOD OF CANCER TREATMENT” (priority 2021, published 2025).
Entries after “also recorded” stand apart in the source; their conditions may differ.

Tests used:
[1] = system: TAMs and Treg in NSCLC-TME; test: en bloc NSCLC culture: effects of PD-1 antibody on TAMs and Treg (FACS, qRT-PCR of Hom-1); format: cell-based, human; settings: 1 μg/mL Pembrolizumab, 48 hours
Protocol: The effects of the treatment on TAMs were determined by FACS analysis of cell surface expression of CD68 and CD206 and qRT-PCR analysis of Hom-1 expression levels.
Total RNA was isolated by the TRIzol reagent (Life Technologies) and RNA amounts were measured by NanoDrop 2000 (Thermo Scientific). Equal amount of RNA was used for first-strand cDNA synthesis with SuperScript III First-Strand Synthesis System (Life Technologies) according to the manufacturer's protocol. The AccuPrime Taq DNA polymerase system (Life Technologies) was used to amplify Hom-1 cDNA with conventional PCR. Quantitative measurements of Hom-1 and other cDNA were carried out with SYBR Green, using a Mastercycler ep Gradient S (Eppendorf). GAPDH was used as a house keeping gene to normalize mRNA expression. Relative expression profiles of mRNAs were calculated using the comparative Ct method (DDCT method).
(§1) Tumor tissue were washed with 1×PBS buffer plus antibiotics and then cut into 0.5 cm pieces. Tissues were cultured in 2 mL of RPMI 1640 medium, supplemented with 2-10% FBS (Sigma) and 1% antibiotic-antimycotic solution (Gibco) in 24-well plate (Corning). The cultures were incubated at a 37° C., 5% CO2 incubator. […] To evaluate the effect of chemotherapeutic agents, chemo-reagents at indicated concentration or PBS was used instead of the anti-PD-1 antibody. […]

primary human NSCLC = test: individual NSG-PDX models of primary human NSCLC; format: in vivo, NSG mice; settings: infusion of PD-1 antibody alone
Excerpt: Specifically, individual NSG-PDX models of primary NSCLC were generated by engrafting small pieces of primary NSCLC tissues into subcutaneous space on the dorsal lateral side of NSG mice.
Individual NSG-PDX models of primary human lung cancers were developed according to standard procedure. All animal experiments were approved by the Institutional Animal Care and Use Committee. Briefly, 8-week-old NOD.Cg-Prkdc^scid Il2rg^tm1Wjl/SzJ mice (commonly known as NOD scid gamma, or NSG mice) were purchased from the Jackson Laboratory and maintained under specific pathogen-free conditions. NSCLC tumors were cut into around 0.5 cm pieces and then surgically implanted into subcutaneous space on the dorsal side of NSG mice. […] The tumor growth was monitored twice weekly and measured by a caliper for 6 weeks. Tumor volumes were calculated according to the formula ½ (length×width^2).

NSCLC cancer cells = test: en bloc NSCLC culture: cancer cell viability by PI-staining and FACS; format: cell-based, human; settings: PD-1 antibody alone, 5 days
Protocol: Single cell suspensions were then obtained by mechanical disruption. The tumor cells were fixed and permeabilized, and were stained with CK7 antibodies and non-tumor epithelial cells were stained with EP4 antibodies. The cells were labeled with PI and percentage of PI positive cells were determined by FACS analysis.
As TME has been implicated in ICI resistance, it was next shown that reversal of immune suppression at NSCLC-TME increased efficacy of PD-1 antibodies. Specifically, en block NSCLC or control nLung tissues were treated with PD-1 or control antibodies, and co-cultured with autologous TAMs transfected with Hom-1 or control GFP. The effects of co-culturing were determined by FACS analysis of cancer or normal epithelial cell viability.
Tumor tissue were washed with 1×PBS buffer plus antibiotics and then cut into 0.5 cm pieces. Tissues were cultured in 2 mL of RPMI 1640 medium, supplemented with 2-10% FBS (Sigma) and 1% antibiotic-antimycotic solution (Gibco) in 24-well plate (Corning). […]
Single cell suspensions generated from en bloc tissue culture were washed with FACS staining solution (PBS plus 2% FBS), fixed and permeabilized (Invitrogen) and then stained with Ber-EP4 antibodies for normal epithelial cells and CK7, CK19 and CK20 for cancer cells for 30 minutes on ice. […] Cell viability were then analyzed with a flow cytometry.

CD8 T cells in NSCLC-TME = test: en bloc NSCLC culture: PD-1 antibody activation of CD8 T cells (FACS and ELISA of IL-2, IFN-γ); format: cell-based, human
Protocol: Tumor infiltrating T (TIL) cells and TAMs were then isolated, and their functional status were determined by FACS analysis.
Single cell suspensions were then generated and stained with FITC conjugated anti-CD8 antibody. The cells were then fixed, permeabilized, stained with PE-conjugated anti-IL2, or anti-IFNy antibodies and analyzed by a flow cytometry.
The culture media were collected after 48 hours. The levels of IL-2, and IFN-γ were quantified using ELISA kits, and statistical significance was determined by a two-way ANOVA analysis.
Levels of IL-1B, IL-2, IFN-γ and TNF-α were quantified using ELISA kits obtained from eBiosciences. Analyses were conducted according to the manufacturer's instructions. Triplicate wells were plated for each condition.
as §1, with “antibody. For en bloc tissue and macrophage co-culture assay, 0.25×10^6 GFP-Hom-1 or control GFP transfected autologous macrophages of the same patient were added to the en bloc tissue culture wells.” for “antibody.”

PDAC = test: en bloc tumor culture with chemotherapeutic agent and Hom-1-TAMs: PDAC; format: cell-based; settings: agent plus Hom-1-TAMs
Protocol: (§2) Besides CRC, Hom-1-TAMs reverse immune polarity of PDAC and NSCLC TME (data not shown). The effects of Hom-1-TAM on tumoricidal effects of DOX were further explored on other tumor types, such as PDAC, NSLC, esophageal cancer and stomach cancers.
(§3) Additional chemo-reagents used in this study are listed below.
(§4) Tumor tissue were washed with 1×PBS buffer plus antibiotics and then cut into 0.5 cm pieces. Tissues were cultured in 2 mL of RPMI 1640 medium, supplemented with 2-10% FBS (Sigma) and 1% antibiotic-antimycotic solution (Gibco) in 24-well plate (Corning). The cultures were incubated at a 37° C., 5% CO2 incubator. […] To evaluate the effect of chemotherapeutic agents, chemo-reagents at indicated concentration or PBS was used instead of the anti-PD-1 antibody. For en bloc tissue and macrophage co-culture assay, 0.25×10^6 GFP-Hom-1 or control GFP transfected autologous macrophages of the same patient were added to the en bloc tissue culture wells. After gently shaking, the plate was incubated at 37° C., 5% CO2 for 3-5 days. The en bloc tissues were then subjected to single 1 cell isolation and analysis as described.

stomach cancer = test: en bloc tumor culture with chemotherapeutic agent and Hom-1-TAMs: stomach cancer; format: cell-based; settings: agent plus Hom-1-TAMs
Protocol: as §2, §3, §4

ovarian cancer = test: en bloc tumor culture with chemotherapeutic agent and Hom-1-TAMs: ovarian cancer; format: cell-based; settings: agent plus Hom-1-TAMs
Protocol: as §3, §4

In the case of Pembrolizumab [PD-1 antibody], the “phenotypical changes of Treg cells and TAMs” value [1] is reported as “no significant phenotypical changes of the Treg cells and TAMs”, the “expression of Hom-1 in TAMs” value ([1]; qRT-PCR) is reported as “did not alter the expression of Hom-1 in TAMs” and the inhibition of tumorigenesis (primary human NSCLC) is reported as “modest inhibition of tumorigenesis”. The “PI-staining of tumor cells (tumoricidal effect)” value (NSCLC cancer cells) was “modest tumoricidal effects on cancer cells”, the “PI-staining of tumor cells (tumoricidal effect)” value (NSCLC cancer cells; listed as anti-PD-1 antibodies) was “modest increase of PI-staining of tumor cells” and the “CD8 T cell activation (expression and secretion of IL-2 and IFN-γ)” value (CD8 T cells in NSCLC-TME; 1 μg/mL Pembrolizumab vs human IgG4, 24 or 48 hours) was “activates CD8 T cells in TME; also recorded: activates CD8^+ CTL”. For the same compound, the “dosage dependence of PD-1 antibody effect on CD8 T cell activation” value (CD8 T cells in NSCLC-TME; various concentrations, 48 hours, ELISA) was “dosage dependent”.

With Nc1ccn([C@@H]2O[C@H](CO)[C@@H](O)C2(F)F)c(=O)n1 [Gemcitabine] the “tumoricidal effects promoted by Hom-1-TAMs” value (shortened to “tumoricidal effects promoted”) (PDAC) was “promoted”.

CC(=O)O[C@H]1C(=O)[C@@]2(C)[C@H]([C@H](OC(=O)c3ccccc3)[C@]3(O)C[C@H](OC(=O)[C@H](O)[C@@H](NC(=O)c4ccccc4)c4ccccc4)C(C)=C1C3(C)C)[C@]1(OC(C)=O)CO[C@@H]1C[C@@H]2O [Taxol] was tested, and the “tumoricidal effects promoted” value (stomach cancer) was “promoted” and the “tumoricidal effects promoted” value (ovarian cancer) was “promoted”.
